According to paper PMC12246613, “Molecular basis of acyl-CoA ester recognition by α-methylacyl-CoA racemase from Mycobacterium tuberculosis” (The Journal of Biological Chemistry, 2025):
Several values for one entry are separate records, joined by “and”; a condition that tells them apart may be missing. Equal entries are not always repeated.

Key:
[1] = target: T1, MCR (α-methylacyl-CoA racemase from Mycobacterium tuberculosis) (Mycobacterium tuberculosis, UniProt O06543); assay: Colorimetric inhibition assay, dose-response curves; settings: for Max % (coefficient): fitted maximum % activity; for Min % (coefficient): fitted minimum % activity; for Hillslope (coefficient): 4-parameter logistic fit; for pIC50 lower than expected based on LogP: from plot of pIC50 vs. calculated LogP
[2] = target: T1, MCR (α-methylacyl-CoA racemase from Mycobacterium tuberculosis); assay: Jump-dilution experiment (reversibility of inhibition); type: biochemical; set-up: made in house; settings: 12-min time-course, inhibitor at 6x or 0.06x the IC50
human AMACR 1A = settings: cited from earlier work
[3] = target: T1, MCR (α-methylacyl-CoA racemase from Mycobacterium tuberculosis); assay: Kinetic assay (Ki and mode of inhibition, colorimetric assay); type: biochemical; set-up: made in house
Description: Data was collected as previously described using ibuprofenoyl-CoA 1 at 0, 3.2, 10, and 32 μM, 3.12 nM MCR, and 50.2 to 576 μM substrate (final concentrations) in 50 mM NaH2PO4-NaOH, 100 mM NaCl, and 1 mM EDTA, pH 7.4 and 3% (v/v) DMSO. Enzyme and inhibitor stock solutions were pre-incubated together for 10 min before initiating the assay. Rates were determined using ICEKAT ([46], [47]), with logarithmic fit of the data and correction of rates for delays between reaction initiation and first read. Data was analyzed using SigmaPlot 15.0 using Simple EK and the enzyme kinetics macro, with the correct inhibition model selected using graphs (Fig. S19, A–G) and statistical ranking of models. The determined Ki value is the mean ± SEM for three independent repeats.

MCR = tested on: MCR; set-up: method as in PMID 26759836; settings: cited from earlier work
[4] = target: T1, MCR (α-methylacyl-CoA racemase from Mycobacterium tuberculosis); assay: Deuterium-exchange assay (substrate α-proton exchange, 1H NMR); type: biochemical; set-up: made in house; settings: 100 μM acyl-CoA, 2.34 nM MCR, ca. 85% 2H2O, 30 °C
Description: Exchange of substrate α-protons was assessed using the deuterium-exchange assay as previously described ([19], [32]). Assay mixtures contained 55 ng (2.34 nM) of active or heat-inactivated MCR, 100 μM acyl-CoA, 50 mM NaH2PO4-NaOH, pH 7.4 and ca. 85% (v/v) ^2H2O in a total volume of 600 μl. Fenoprofenoyl-CoA 2 was used as a positive control. Reactions were initiated by the addition of enzyme, and reaction mixtures were incubated at 30 °C for 1 h before quenching at 55 °C for 10 min. NMR data were collected on a Bruker Avance Neo operating at 500.13 MHz for proton at 25 °C. Solvent suppression was achieved using a pre-saturation experiment. Typically, 128 transients were recorded. Data were processed using Topspin 4.0.7. Analysis of deuterium-exchange is based upon changes in intensity of either the substrate methine protons in the α-position or by the effects of the loss of those α-proton on a coupled methyl group.

[5] = LogIC50 (coefficient), individual independent repeats 1-3, 4-parameter logistic fit of mean % activity (2 technical repeats)
[6] = individual independent repeats 1-3
[7] = pIC50, mean ± SEM, n = 3, colorimetric assay, 96 μM substrate, 3.12 nM MCR, 10 min pre-incubation

T1 sequence (O06543 whole entry): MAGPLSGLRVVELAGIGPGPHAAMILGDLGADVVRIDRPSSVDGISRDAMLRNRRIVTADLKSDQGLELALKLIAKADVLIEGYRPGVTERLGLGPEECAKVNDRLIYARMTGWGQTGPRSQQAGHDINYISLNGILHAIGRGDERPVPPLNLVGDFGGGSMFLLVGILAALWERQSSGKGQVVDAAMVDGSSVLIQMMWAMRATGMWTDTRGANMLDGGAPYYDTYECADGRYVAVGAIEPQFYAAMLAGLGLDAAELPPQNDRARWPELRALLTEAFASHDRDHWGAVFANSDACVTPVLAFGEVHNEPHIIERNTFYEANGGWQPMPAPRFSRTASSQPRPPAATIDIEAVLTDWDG

## CCCCCCCCC(C)C(=O)SCCNC(=O)CCNC(=O)[C@H](O)C(C)(C)COP(=O)(O)OP(=O)(O)OC[C@H]1O[C@@H](n2cnc3c(N)ncnc32)[C@H](O)[C@@H]1OP(=O)(O)O (some centres unmarked) [compound 6, S-2-Methyldecanoyl-CoA]
[1]; [5]
  IC50: 62.8 µM and 67.4 µM and 46.5 µM
[1]; [6]
  Max % (coefficient): 104.1285% and 101.8704% and 101.0137%
  Min % (coefficient): 10.2466% and 13.4630% and 9.4607%
  Hillslope (coefficient): -1.5837 and -2.4923 and -1.4587
[1]; [7]
  IC50: 58.9 µM

## CC(C)Cc1ccc(C(C)C(=O)SCCNC(=O)CCNC(=O)C(O)C(C)(C)COP(=O)(O)OP(=O)(O)OCC2OC(n3cnc4c(N)ncnc43)C(O)C2OP(=O)(O)O)cc1 (racemic) [compound 1, ±-Ibuprofenoyl-CoA]
[2]
  reversibility of inhibition: reversible inhibition
[1]; [5]
  IC50: 10.9 µM and 8.94 µM and 7.48 µM
[1]; MCR versus human AMACR
  potency on MCR relative to human AMACR (fold less potent): ~20 fold
[1]; [6]
  Max % (coefficient): 105.5482% and 98.8641% and 101.2444%
  Min % (coefficient): 2.6168% and 2.9187% and 2.6510%
  Hillslope (coefficient): -0.9604 and -0.9180 and -0.9734
[1]; [7]
  IC50: 8.91 µM
Human AMACR 1A; human AMACR 1A, mean ± SEM, n = 1
  Ki: 0.06 ± 0.00478 µM
[3]; individual repeats 1-3, inhibitor 0, 3.2, 10, 32 μM, 50.2 to 576 μM substrate
  Ki: 3.06 µM and 2.44 µM and 3.62 µM
[3]; mean ± SEM, n = 3, competitive inhibition model
  Ki: 3.04 ± 0.34 µM
[3]; Lineweaver-Burk plot and statistical ranking of models
  mode of inhibition: competitive inhibition

## CCCC(=O)SCCNC(=O)CCNC(=O)C(O)C(C)(C)COP(=O)(O)OP(=O)(O)OCC1OC(n2cnc3c(N)ncnc32)C(O)C1OP(=O)(O)O (centres unmarked) [compound 10, n-Butanoyl-CoA]
[1]; [7]
  IC50: ~562 µM

## CC(=O)SCCNC(=O)CCNC(=O)C(O)C(C)(C)COP(=O)(O)OP(=O)(O)OCC1OC(n2cnc3c(N)ncnc32)C(O)C1OP(=O)(O)O (centres unmarked) [compound 11, Acetyl-CoA]
[1]; [7]
  IC50: ~1000 µM

## CC(C(=O)SCCNC(=O)CCNC(=O)C(O)C(C)(C)COP(=O)(O)OP(=O)(O)OCC1OC(n2cnc3c(N)ncnc32)C(O)C1OP(=O)(O)O)c1ccc(-c2ccccc2)c(F)c1 (racemic) [compound 4, ±-Flurbiprofenoyl-CoA]
[1]; [5]
  IC50: 13.1 µM and 21.1 µM and 21.2 µM
[1]; [6]
  Max % (coefficient): 97.7981% and 95.9188% and 94.6575%
  Min % (coefficient): 1.7221% and 0.8368% and 2.1053%
  Hillslope (coefficient): -0.9708 and -1.0277 and -1.0055
[1]; [7]
  IC50: 18.2 µM

## CC(C)(COP(=O)(O)OP(=O)(O)OC[C@H]1O[C@@H](n2cnc3c(N)ncnc32)[C@H](O)[C@@H]1OP(=O)(O)O)[C@@H](O)C(=O)NCCC(=O)NCCSC(=O)C(c1ccccc1)c1ccccc1 [diphenylacetyl-CoA]
MCR
  α-proton exchange: did not undergo α-proton exchange

## CCCCCCCCCC(=O)SCCNC(=O)CCNC(=O)C(O)C(C)(C)COP(=O)(O)OP(=O)(O)OCC1OC(n2cnc3c(N)ncnc32)C(O)C1OP(=O)(O)O (centres unmarked) [compound 7, Decanoyl-CoA]
[1]; [7]
  IC50: ~100 µM

## CCCCCCCC(=O)SCCNC(=O)CCNC(=O)C(O)C(C)(C)COP(=O)(O)OP(=O)(O)OCC1OC(n2cnc3c(N)ncnc32)C(O)C1OP(=O)(O)O (centres unmarked) [compound 8, Octanoyl-CoA]
[1]; [7]
  IC50: ~100 µM

## CC(C)C(=O)SCCNC(=O)CCNC(=O)C(O)C(C)(C)COP(=O)(O)OP(=O)(O)OCC1OC(n2cnc3c(N)ncnc32)C(O)C1OP(=O)(O)O (centres unmarked) [compound 12, Isobutanoyl-CoA]
[1]; [7]
  IC50: ~1000 µM
[4]
  α-proton exchange: significant α-proton exchange

## CC(C(=O)SCCNC(=O)CCNC(=O)C(O)C(C)(C)COP(=O)(O)OP(=O)(O)OCC1OC(n2cnc3c(N)ncnc32)C(O)C1OP(=O)(O)O)c1cccc(Oc2ccccc2)c1 (racemic) [compound 2, ±-Fenoprofenoyl-CoA]
[1]; [5]
  IC50: 20.4 µM and 11.7 µM and 14.2 µM
[1]; [6]
  Max % (coefficient): 99.3868% and 110.2399% and 93.4385%
  Min % (coefficient): -1.0173% and 2.2137% and -0.7388%
  Hillslope (coefficient): -0.8331 and -0.7292 and -0.8187
[1]; [7]
  IC50: 15.1 µM
Human AMACR 1A; human AMACR
  relative inhibitor potency: most potent inhibitor

## CC(C(=O)SCCNC(=O)CCNC(=O)C(O)C(C)(C)COP(=O)(O)OP(=O)(O)OCC1OC(n2cnc3c(N)ncnc32)C(O)C1OP(=O)(O)O)c1cccc(C(=O)c2ccccc2)c1 (centres unmarked) [compound 3, S-Ketoprofenoyl-CoA]
[1]; [5]
  IC50: 31.5 µM and 30.8 µM
[1]; [6]
  Max % (coefficient): 100.4116% and 96.3493% and 103.0106%
  Min % (coefficient): -9.0253% and -2.7332% and -8.7722%
  Hillslope (coefficient): -0.6349 and -0.7776 and -0.7146
[1]
  pIC50 lower than expected based on LogP: approximately 0.3
[1]; [7]
  IC50: 31.6 µM

## COc1ccc2cc(C(C)C(=O)SCCNC(=O)CCNC(=O)C(O)C(C)(C)COP(=O)(O)OP(=O)(O)OCC3OC(n4cnc5c(N)ncnc54)C(O)C3OP(=O)(O)O)ccc2c1 (centres unmarked) [compound 5, S-Naproxenoyl-CoA]
[1]; [5]
  IC50: 19.5 µM and 15.6 µM and 15.5 µM
[1]; [6]
  Max % (coefficient): 99.5824% and 102.2413% and 102.0390%
  Min % (coefficient): -0.6400% and -0.5309% and -2.7274%
  Hillslope (coefficient): -0.7858 and -0.8072 and -0.6833
[1]
  pIC50 lower than expected based on LogP: approximately 0.3
[1]; [7]
  IC50: 17 µM

## CCCCCC(=O)SCCNC(=O)CCNC(=O)C(O)C(C)(C)COP(=O)(O)OP(=O)(O)OCC1OC(n2cnc3c(N)ncnc32)C(O)C1OP(=O)(O)O (centres unmarked) [compound 9, Hexanoyl-CoA]
[1]; [7]
  IC50: ~316 µM
